Measurements taken from patent publication US10836725B2, “Modulators of the integrated stress pathway” (Calico Life Sciences LLC, priority 2016, dated 2020).

Tested on: ATF4 luciferase reporter
Test: ATF4-Luc assay in HEK293T cells carrying the ATF4 luciferase reporter (in vitro model of VWMD)
Assay type: cell-based, human
Conditions: Homo sapiens, HEK-293T, 1 μg/mL tunicamycin, 7 hours, luminescence (One Glo)
Outline: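 Compound at 200 nM and tunicamycin at 1 μg/mL were given together for 7 h to HEK293T cells stably transduced with an ATF4 5′-UTR-driven firefly luciferase reporter. Read-out by luminescence, reported as EC50.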

| Structure (SMILES) | EC50 |
| --- | --- |
| Cn1cnc(CNC(=O)C23CC(NC(=O)COc4ccc(Cl)c(F)c4)(C2)C3)c1 [Compound 196, 3-[2-(4-chloro-3-fluorophenoxy)acetamido]-N-[(1-methyl-1H-imidazol-4-yl)methyl]bicyclo[1.1.1]pentane-1-carboxamide] | > 2000 nM |
| C[C@@H](NC(=O)C12CC(NC(=O)COc3ccc(Cl)c(F)c3)(C1)C2)c1ccc(Cl)cc1 [Compound 198, 3-[2-(4-chloro-3-fluorophenoxy)acetamido]-N-[(1R)-1-(4-chlorophenyl)ethyl]bicyclo[1.1.1]pentane-1-carboxamide] | > 2000 nM |
| O=C(COc1ccc(Cl)c(F)c1)NC12CC(C(=O)NCc3noc(-c4ccccc4)n3)(C1)C2 [Compound 201, 3-[2-(4-chloro-3-fluorophenoxy)acetamido]-N-[(5-phenyl-1,2,4-oxadiazol-3-yl)methyl]bicyclo[1.1.1]pentane-1-carboxamide] | 1000 to 2000 nM |
| O=C(COc1ccc(Cl)c(F)c1)NC12CC(C(=O)NCc3ccccc3OCC(F)F)(C1)C2 [Compound 203, 3-[2-(4-chloro-3-fluorophenoxy)acetamido]-N-{[2-(2,2-difluoroethoxy)phenyl]methyl}bicyclo[1.1.1]pentane-1-carboxamide] | > 2000 nM |
| O=C(COc1ccc(Cl)c(F)c1)NC12CC(C(=O)NCc3cccnn3)(C1)C2 [Compound 205, 3-[2-(4-chloro-3-fluorophenoxy)acetamido]-N-[(pyridazin-3-yl)methyl]bicyclo[1.1.1]pentane-1-carboxamide] | > 2000 nM |
| COc1c(F)cc(CNC(=O)C23CC(NC(=O)COc4ccc(Cl)c(F)c4)(C2)C3)cc1F [Compound 206, 3-[2-(4-chloro-3-fluorophenoxy)acetamido]-N-[(3,5-difluoro-4-methoxyphenyl)methyl]bicyclo[1.1.1]pentane-1-carboxamide] | > 2000 nM |
| O=C(COc1ccc(Cl)c(F)c1)NC12CC(C(=O)NCc3nccs3)(C1)C2 [Compound 208, 3-[2-(4-chloro-3-fluorophenoxy)acetamido]-N-[(1,3-thiazol-2-yl)methyl]bicyclo[1.1.1]pentane-1-carboxamide] | > 2000 nM |
| Cc1cc(CCNC(=O)C23CC(NC(=O)COc4ccc(Cl)c(F)c4)(C2)C3)cc(C)n1 [Compound 211, 3-[2-(4-chloro-3-fluorophenoxy)acetamido]-N-[2-(2,6-dimethylpyridin-4-yl)ethyl]bicyclo[1.1.1]pentane-1-carboxamide] | 1000 to 2000 nM |
| CC(C)Cc1cc(CNC(=O)C23CC(NC(=O)COc4ccc(Cl)c(F)c4)(C2)C3)on1 [Compound 212, 3-[2-(4-chloro-3-fluorophenoxy)acetamido]-N-{[3-(2-methylpropyl)-1,2-oxazol-5-yl]methyl}bicyclo[1.1.1]pentane-1-carboxamide] | > 2000 nM |
| O=C(COc1ccc(Cl)c(F)c1)NC12CC(C(=O)NCCc3ccc(C(F)(F)F)cn3)(C1)C2 [Compound 213, 3-[2-(4-chloro-3-fluorophenoxy)acetamido]-N-{2-[5-(trifluoromethyl)pyridin-2-yl]ethyl}bicyclo[1.1.1]pentane-1-carboxamide] | > 2000 nM |
| Cc1cccc(-c2nc(CNC(=O)C34CC(NC(=O)COc5ccc(Cl)c(F)c5)(C3)C4)cs2)c1 [Compound 214, 3-[2-(4-chloro-3-fluorophenoxy)acetamido]-N-{[2-(3-methylphenyl)-1,3-thiazol-4-yl]methyl}bicyclo[1.1.1]pentane-1-carboxamide] | > 2000 nM |
| O=C(COc1ccc(Cl)c(F)c1)NC12CC(C(=O)NCc3ccc(C(F)(F)F)o3)(C1)C2 [Compound 215, 3-[2-(4-chloro-3-fluorophenoxy)acetamido]-N-{[5-(trifluoromethyl)furan-2-yl]methyl}bicyclo[1.1.1]pentane-1-carboxamide] | > 2000 nM |
| CCc1nccc(CNC(=O)C23CC(NC(=O)COc4ccc(Cl)c(F)c4)(C2)C3)n1 [Compound 217, 3-[2-(4-chloro-3-fluorophenoxy)acetamido]-N-[(2-ethylpyrimidin-4-yl)methyl]bicyclo[1.1.1]pentane-1-carboxamide] | > 2000 nM |
| Cc1noc(C)c1CCCNC(=O)C12CC(NC(=O)COc3ccc(Cl)c(F)c3)(C1)C2 [Compound 220, 3-[2-(4-chloro-3-fluorophenoxy)acetamido]-N-[3-(3,5-dimethyl-1,2-oxazol-4-yl)propyl]bicyclo[1.1.1]pentane-1-carboxamide] | > 2000 nM |
| O=C(COc1ccc(Cl)c(F)c1)NC12CC(C(=O)NCc3ccno3)(C1)C2 [Compound 222, 3-[2-(4-chloro-3-fluorophenoxy)acetamido]-N-[(1,2-oxazol-5-yl)methyl]bicyclo[1.1.1]pentane-1-carboxamide] | > 2000 nM |
| O=C(COc1ccc(Cl)c(F)c1)NC12CC(C(=O)NCc3nnc4n3CCCC4)(C1)C2 [Compound 223, 3-[2-(4-chloro-3-fluorophenoxy)acetamido]-N-[(5,6,7,8-tetrahydro[1,2,4]triazolo[4,3-a]pyridin-3-yl)methyl]bicyclo[1.1.1]pentane-1-carboxamide] | > 2000 nM |
| O=C(COc1ccc(Cl)c(F)c1)NC12CC(C(=O)NCc3ccccn3)(C1)C2 [Compound 224, 3-[2-(4-chloro-3-fluorophenoxy)acetamido]-N-[(pyridin-2-yl)methyl]bicyclo[1.1.1]pentane-1-carboxamide] | > 2000 nM |
| Cc1cnc(CNC(=O)C23CC(NC(=O)COc4ccc(Cl)c(F)c4)(C2)C3)cn1 [Compound 228, 3-[2-(4-chloro-3-fluorophenoxy)acetamido]-N-[(5-methylpyrazin-2-yl)methyl]bicyclo[1.1.1]pentane-1-carboxamide] | > 2000 nM |

The remaining lines, values ahead:

| EC50 | Structure (SMILES) |
| --- | --- |
| > 2000 nM | COc1ccc(CNC(=O)C23CC(NC(=O)COc4ccc(Cl)c(F)c4)(C2)C3)cc1 [Compound 195, 3-[2-(4-chloro-3-fluorophenoxy)acetamido]-N-[(4-methoxyphenyl)methyl]bicyclo[1.1.1]pentane-1-carboxamide] |
| 500 to 1000 nM | Cc1ccccc1CNC(=O)C12CC(NC(=O)COc3ccc(Cl)c(F)c3)(C1)C2 [Compound 197, 3-[2-(4-chloro-3-fluorophenoxy)acetamido]-N-[(2-methylphenyl)methyl]bicyclo[1.1.1]pentane-1-carboxamide] |
| > 2000 nM | NS(=O)(=O)c1ccc(CCNC(=O)C23CC(NC(=O)COc4ccc(Cl)c(F)c4)(C2)C3)cc1 [Compound 199, 3-[2-(4-chloro-3-fluorophenoxy)acetamido]-N-[2-(4-sulfamoylphenyl)ethyl]bicyclo[1.1.1]pentane-1-carboxamide] |
| > 2000 nM | COc1ncc(CNC(=O)C23CC(NC(=O)COc4ccc(Cl)c(F)c4)(C2)C3)cn1 [Compound 200, 3-[2-(4-chloro-3-fluorophenoxy)acetamido]-N-[(2-methoxypyrimidin-5-yl)methyl]bicyclo[1.1.1]pentane-1-carboxamide] |
| > 2000 nM | COc1ccc(CNC(=O)C23CC(NC(=O)COc4ccc(Cl)c(F)c4)(C2)C3)cc1OC [Compound 202, 3-[2-(4-chloro-3-fluorophenoxy)acetamido]-N-[(3,4-dimethoxyphenyl)methyl]bicyclo[1.1.1]pentane-1-carboxamide] |
| < 250 nM | O=C(COc1ccc(Cl)c(F)c1)NC12CC(C(=O)NCCCc3ccc(F)cc3)(C1)C2 [Compound 204, 3-[2-(4-chloro-3-fluorophenoxy)acetamido]-N-[3-(4-fluorophenyl)propyl]bicyclo[1.1.1]pentane-1-carboxamide] |
| > 2000 nM | CC(C)Oc1ccc(CNC(=O)C23CC(NC(=O)COc4ccc(Cl)c(F)c4)(C2)C3)cc1 [Compound 207] |
| > 2000 nM | COc1cc(F)cc(CNC(=O)C23CC(NC(=O)COc4ccc(Cl)c(F)c4)(C2)C3)c1 [Compound 209, 3-[2-(4-chloro-3-fluorophenoxy)acetamido]-N-[(3-fluoro-5-methoxyphenyl)methyl]bicyclo[1.1.1]pentane-1-carboxamide] |
| > 2000 nM | O=C(COc1ccc(Cl)c(F)c1)NC12CC(C(=O)NCc3ccccc3F)(C1)C2 [Compound 210, 3-[2-(4-chloro-3-fluorophenoxy)acetamido]-N-[(2-fluorophenyl)methyl]bicyclo[1.1.1]pentane-1-carboxamide] |
| > 2000 nM | COc1cccc(CNC(=O)C23CC(NC(=O)COc4ccc(Cl)c(F)c4)(C2)C3)c1 [Compound 216, 3-[2-(4-chloro-3-fluorophenoxy)acetamido]-N-[(3-methoxyphenyl)methyl]bicyclo[1.1.1]pentane-1-carboxamide] |
| > 2000 nM | O=C(COc1ccc(Cl)c(F)c1)NC12CC(C(=O)NCc3cccc(Cl)c3)(C1)C2 [Compound 219, 3-[2-(4-chloro-3-fluorophenoxy)acetamido]-N-[(3-chlorophenyl)methyl]bicyclo[1.1.1]pentane-1-carboxamide] |
| > 2000 nM | Cc1ccnc(CNC(=O)C23CC(NC(=O)COc4ccc(Cl)c(F)c4)(C2)C3)c1 [Compound 221, 3-[2-(4-chloro-3-fluorophenoxy)acetamido]-N-[(4-methylpyridin-2-yl)methyl]bicyclo[1.1.1]pentane-1-carboxamide] |
| > 2000 nM | O=C(COc1ccc(Cl)c(F)c1)NC12CC(C(=O)NCc3ccc(OC(F)(F)F)cc3)(C1)C2 [Compound 225, 3-[2-(4-chloro-3-fluorophenoxy)acetamido]-N-{[4-(trifluoromethoxy)phenyl]methyl}bicyclo[1.1.1]pentane-1-carboxamide] |
| > 2000 nM | N#Cc1ccc(CNC(=O)C23CC(NC(=O)COc4ccc(Cl)c(F)c4)(C2)C3)cn1 [Compound 226, 3-[2-(4-chloro-3-fluorophenoxy)acetamido]-N-[(6-cyanopyridin-3-yl)methyl]bicyclo[1.1.1]pentane-1-carboxamide] |
| > 2000 nM | CC(C)c1ccc(CNC(=O)C23CC(NC(=O)COc4ccc(Cl)c(F)c4)(C2)C3)cc1 [Compound 227, 3-[2-(4-chloro-3-fluorophenoxy)acetamido]-N-{[4-(propan-2-yl)phenyl]methyl}bicyclo[1.1.1]pentane-1-carboxamide] |
| > 2000 nM | COCc1ccc(CNC(=O)C23CC(NC(=O)COc4ccc(Cl)c(F)c4)(C2)C3)cc1 [Compound 229, 3-[2-(4-chloro-3-fluorophenoxy)acetamido]-N-{[4-(methoxymethyl)phenyl]methyl]bicyclo[1.1.1]pentane-1-carboxamide] |
